Laboratory results from US10501522B2, “Peptides and combination of peptides for use in immunotherapy against various tumors” (IMMATICS BIOTECHNOLOGIES GMBH, priority 2015, dated 2019).

System: CD8+ T cells
Test: In vitro T-cell priming assay with aAPCs loaded with peptide/MHC and anti-CD28, pMHC multimer readout
Format: cell-based, human
Details: in vitro immunogenicity, HLA-A*02 restricted peptides; percentage of positive wells (among evaluable)
Description: In order to obtain information regarding the immunogenicity of the TUMAPs of the present invention, the inventors performed investigations using an in vitro T-cell priming assay based on repeated stimulations of CD8+ T cells with artificial antigen presenting cells (aAPCs) loaded with peptide/MHC complexes and anti-CD28 antibody.
In order to perform in vitro stimulations by artificial antigen presenting cells loaded with peptide-MHC complex (pMHC) and anti-CD28 antibody, the inventors first isolated CD8+ T cells from fresh HLA-A*02 leukapheresis products via positive selection using CD8 microbeads (Miltenyi Biotec, Bergisch-Gladbach, Germany) of healthy donors obtained from the University clinics Mannheim, Germany, after informed consent. PBMCs and isolated CD8+ lymphocytes were incubated in T-cell medium (TCM) until use consisting of RPMI-Glutamax (Invitrogen, Karlsruhe, Germany) supplemented with 10% heat inactivated human AB serum (PAN-Biotech, Aidenbach, Germany), 100 U/ml Penicillin/100 μg/ml Streptomycin (Cambrex, Cologne, Germany), 1 mM sodium pyruvate (CC Pro, Oberdorla, Germany), 20 μg/ml Gentamycin (Cambrex). 2.5 ng/ml IL-7 (PromoCell, Heidelberg, Germany) and 10 U/ml IL-2 (Novartis Pharma, Nürnberg, Germany) were also added to the TCM at this step. Generation of pMHC/anti-CD28 coated beads, T-cell stimulations and readout was performed in a highly defined in vitro system using four different pMHC molecules per stimulation condition and 8 different pMHC molecules per readout condition.
The purified co-stimulatory mouse IgG2a anti human CD28 Ab 9.3 (Jung et al., 1987) was chemically biotinylated using Sulfo-N-hydroxysuccinimidobiotin as recommended by the manufacturer (Perbio, Bonn, Germany). Beads used were 5.6 μm diameter streptavidin coated polystyrene particles (Bangs Laboratories, Illinois, USA).
pMHC used for positive and negative control stimulations were A*0201/MLA-001 (peptide […] (SEQ ID NO. 289) from modified Melan-A/MART-1) and A*0201/DDX5-001 ([…] from DDX5, SEQ ID NO. 290), respectively.
800.000 beads/200 μl were coated in 96-well plates in the presence of 4×12.5 ng different biotin-pMHC, washed and 600 ng biotin anti-CD28 were added subsequently in a volume of 200 μl. Stimulations were initiated in 96-well plates by co-incubating […] CD8+ T cells with 2×10^5 washed coated beads in 200 μl TCM supplemented with 5 ng/ml IL-12 (PromoCell) for 3 days at 37° C. Half of the medium was then exchanged by fresh TCM supplemented with 80 U/ml IL-2 and incubating was continued for 4 days at 37° C. This stimulation cycle was performed for a total of three times. For the pMHC multimer readout using 8 different pMHC molecules per condition, a two-dimensional combinatorial coding approach was used as previously described (Andersen et al., 2012) with minor modifications encompassing coupling to 5 different fluorochromes. Finally, multimeric analyses were performed by staining the cells with Live/dead near IR dye (Invitrogen, Karlsruhe, Germany), CD8-FITC antibody clone SK1 (BD, Heidelberg, Germany) and fluorescent pMHC multimers. For analysis, a BD LSRII SORP cytometer equipped with appropriate lasers and filters was used. Peptide specific cells were calculated as percentage of total CD8+ cells. Evaluation of multimeric analysis was done using the FlowJo software (Tree Star, Oreg., USA). In vitro priming of specific multimer+ CD8+ lymphocytes was detected by comparing to negative control stimulations.

| Substance | Wells positive [%] |
| --- | --- |
| 29 (KMISAIPTL; listed as Homo sapiens) [compound 29] | + (<20% = +) |
| 157 (ILQDGQFLV; listed as Homo sapiens) [compound 157] | + (<20% = +) |
| 263 (SIIEYLPTL; listed as Homo sapiens) [compound 263] | + (<20% = +) |
| 246 (ALAGIVTNV; listed as Homo sapiens) [compound 246] | + (<20% = +) |
| 35 (VIIKGLEEI; listed as Homo sapiens) [compound 35] | + (<20% = +) |
| 254 (ALGDKFLLRV; listed as Homo sapiens) [compound 254] | + (<20% = +) |
| 102 (GLYPVTLVGV; listed as Homo sapiens) [compound 102] | + (<20% = +) |
| 233 (SLFESLEYL; listed as Homo sapiens) [compound 233] | + (<20% = +) |
| 121 (ALYVQAPTV; listed as Homo sapiens) [compound 121] | + (<20% = +) |
| 77 (ALYGNVQQV; listed as Homo sapiens) [compound 77] | + (<20% = +) |
| 34 (TLNTLDINL; listed as Homo sapiens) [compound 34] | ++++ (≥70% = ++++) |
| 264 (TLHDQVHLL; listed as Homo sapiens) [compound 264] | + (<20% = +) |
| 66 (AMFPDTIPRV; listed as Homo sapiens) [compound 66] | + (<20% = +) |
| 242 (KLQEEIPVL; listed as Homo sapiens) [compound 242] | + (<20% = +) |
| 89 (SLAETIFIV; listed as Homo sapiens) [compound 89] | + (<20% = +) |
| 4 (VLFGELPAL; listed as Homo sapiens) [compound 4] | + (<20% = +) |
| 50 (ILLSVLHQL; listed as Homo sapiens) [compound 50] | + (<20% = +) |
| 236 (KMSELQTYV; listed as Homo sapiens) [compound 236] | + (<20% = +) |
| 39 (YLEDGFAYV; listed as Homo sapiens) [compound 39] | ++++ (≥70% = ++++) |
| 267 (YLLDMPLWYL; listed as Homo sapiens) [compound 267] | + (<20% = +) |
| 17 (GLLPSAESIKL; listed as Homo sapiens) [compound 17] | + (<20% = +) |
| 101 (SLLEVNEASSV; listed as Homo sapiens) [compound 101] | + (<20% = +) |
| 97 (KLFEKSTGL; listed as Homo sapiens) [compound 97] | + (<20% = +) |
| 14 (YTFSGDVQL; listed as Homo sapiens) [compound 14] | + (<20% = +) |
| 257 (KLIDHQGLYL; listed as Homo sapiens) [compound 257] | + (<20% = +) |
| 9 (SLITGQDLLSV; listed as Homo sapiens) [compound 9] | + (<20% = +) |
| 27 (GLLGKVTSV; listed as Homo sapiens) [compound 27] | + (<20% = +) |
| 255 (FLMKNSDLYGA; listed as Homo sapiens) [compound 255] | + (<20% = +) |
| 260 (ALNESLVEC; listed as Homo sapiens) [compound 260] | + (<20% = +) |

Same assay, conditions: percentage of positive donors; HLA-A*02 healthy donor CD8+ T cells, three stimulation cycles

| Substance | in vitro immunogenicity: donors |
| --- | --- |
| 288 (SLYKGLLSV; listed as Homo sapiens) [compound 288] | ++++ (≥70% = ++++) |

Same assay, conditions: percentage of positive wells; HLA-A*02 healthy donor CD8+ T cells, three stimulation cycles

| Substance | in vitro immunogenicity: wells |
| --- | --- |
| 288 (SLYKGLLSV; listed as Homo sapiens) [compound 288] | ++ (20%-49% = ++) |
| 287 (KIQEILTQV; listed as Homo sapiens) [compound 287] | + (<20% = +) |
